# From US20220378923A1, “BET DEGRADER” (KYOWA KIRIN CO., LTD., priority 2019, published 2022)
# Like-named read-outs stand apart in the source and are kept apart here.
# Tests used:
# SU-DHL-4 cells = test: Inhibitory effect on cell viability in SU-DHL-4 cell line (Test Example 1); type: cell-based, human; conditions: 72 hours; for IC50: SU-DHL-4 (wild type) cells, calculated using the measurement results of test example 1, read-out: SU-DHL-4 WT IC50; for IC90: SU-DHL-4 cells, Cell Counting Kit-8, concentration showing 90% inhibition of cell viability, read-out: SU-DHL-4 Cell Viability Inhibition Rate IC90
# In short: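 SU-DHL-4 cells were grown at 37° C. under 5% CO2 in RPMI1640 with 10 vol % heat-inactivated FBS plus penicillin/streptomycin, seeded and precultured for 18 to 25 hours, then exposed to test compound at 0.1 vol % DMSO for 72 hours. Viability was read with Cell Counting Kit-8 by absorbance at 450 nm.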
# DCAF16 KO SU-DHL-4 cells = test: Inhibitory effect on cell viability using SU-DHL-4 DCAF16 knock out (KO) cell line (Test Example 6); type: cell-based, human; conditions: for Activity Attenuation Ratio: (SU-DHL-4 DCAF16 KO IC50)/(SU-DHL-4 WT IC50); for IC50: DCAF16 KO SU-DHL-4 cells, 72 hours, Cell Counting Kit-8, 50% inhibition of cell viability
# In short: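 SU-DHL-4 DLBCL cells carrying lentiviral Cas9 plus DCAF16-targeting sgRNA (three KO strains; non-targeting control strain), seeded 2000 cells/well, pre-cultured 18–25 h, then given 9-step compound dilutions (0.1% DMSO final) for 72 h at 37° C. Viability read by CCK-8 colorimetric assay.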
SMILES,IC50 (SU-DHL-4 cells; Homo sapiens) [nM],IC50 (DCAF16 KO SU-DHL-4 cells; Homo sapiens) [nM],IC90 (SU-DHL-4 cells; Homo sapiens) [nM],IC50 (SU-DHL-4 cells) [nM],IC90 (SU-DHL-4 cells) [nM],IC50 (DCAF16 KO SU-DHL-4 cells) [nM],Activity Attenuation Ratio (DCAF16 KO SU-DHL-4 cells)
"CCC(=O)N1c2ccccc2[C@H](Nc2ccc(NC(=O)CCCC(=O)Nc3ccc(N[C@@H]4C[C@H](C)N(C(=O)CC)c5ccccc54)nc3)cc2)C[C@@H]1C [Compound 10k, N^1-(4-(((2S,4R)-2-Methyl-1-propionyl-1,2,3,4-tetrahydroquinolin-4-yl)amino)phenyl)-N^5-(6-(((2S,4R)-2-methyl-1-propionyl-1,2,3,4-tetrahydroquinolin-4-yl)amino)pyridin-3-yl)glutaramide]",0.21,143,,,,,672
"CCC(=O)N1c2ccccc2[C@H](Nc2ccc(-c3nnc(CNC(=O)C4CCN(Cc5cc(O)cc(-c6c(C)noc6C)c5)CC4)o3)cc2)C[C@@H]1C [Compound 12a, 1-(3-(3,5-Dimethylisoxazol-4-yl)-5-hydroxybenzyl)-N-((5-(4-(((2S,4R)-2-methyl-1-propionyl-1,2,3,4-tetrahydroquinolin-4-yl)amino)phenyl)-1,3,4-oxadiazol-2-yl)methyl)piperidine-4-carboxamide]",0.51,354,,,,,693
"CCC(=O)N1c2ccccc2[C@H](Nc2ccc(NC(=O)C3CN(C(=O)C4CCN(Cc5cc(O)cc(-c6c(C)noc6C)c5)CC4)C3)cc2)C[C@@H]1C [Compound 12b, 1-(1-(3-(3,5-Dimethylisoxazol-4-yl)-5-hydroxybenzyl)piperidine-4-carbonyl)-N-(4-(((2S,4R)-2-methyl-1-propionyl-1,2,3,4-tetrahydroquinolin-4-yl)amino)phenyl)azetidine-3-carboxamide]",2.83,> 10000,,,,,>3526
"CCC(=O)N1c2ccccc2[C@H](Nc2ccc(NC(=O)CCCC(=O)NC3CCN(Cc4cc(O)cc(-c5c(C)noc5C)c4)CC3)cc2)C[C@@H]1C [Compound 12c, N^1-(1-(3-(3,5-Dimethylisoxazol-4-yl)-5-hydroxybenzyl)piperidin-4-yl)-N^5-(4-(((2S,4R)-2-methyl-1-propionyl-1,2,3,4-tetrahydroquinolin-4-yl)amino)phenyl)glutaramide]",0.22,> 10000,0.56,,,,>44436
"CCC(=O)N1c2ccccc2[C@H](Nc2ccc(SCCNC(=O)c3ccc(C4=N[C@@H](CC(=O)OCCN(C)C)c5nnc(C)n5-c5sc(C)c(C)c54)cc3)cc2)C[C@@H]1C [Compound 13a, 2-(Dimethylamino)ethyl 2-((S)-2,3,9-trimethyl-4-(4-((2-((4-(((2S,4R)-2-methyl-1-propionyl-1,2,3,4-tetrahydroquinolin-4-yl)amino)phenyl)thio)ethyl)carbamoyl)phenyl)-6H-thieno[3,2-f][1,2,4]triazolo[4,3-a][1,4]diazepin-6-yl)acetate]",0.26,9.31,,,,,35
"CCC(=O)N1c2ccccc2[C@H](Nc2ccc(C(=O)NCCCNC(=O)c3ccc(C4=N[C@@H](CC(=O)OC5CCC(O)CC5)c5nnc(C)n5-c5sc(C)c(C)c54)cc3)cc2)C[C@@H]1C (stereo partly drawn) [Compound 13d, 4-Hydroxycyclohexyl 2-((S)-2,3,9-trimethyl-4-(4-((3-(4-(((2S,4R)-2-methyl-1-propionyl-1,2,3,4-tetrahydroquinolin-4-yl)amino)benzamide)propyl)carbamoyl)phenyl)-6H-thieno[3,2-f][1,2,4]triazolo[4,3-a][1,4]diazepin-6-yl)acetate]",,,,0.53,1.19,27.8,52
"CCC(=O)N1c2ccccc2[C@H](Nc2ccc(C(=O)NCCCNC(=O)c3ccc(C4=N[C@@H](CC(=O)OCCCOC)c5nnc(C)n5-c5sc(C)c(C)c54)cc3)cc2)C[C@@H]1C [Compound 13h, 3-Methoxypropyl 2-((S)-2,3,9-trimethyl-4-(4-((3-(4-(((2S,4R)-2-methyl-1-propionyl-1,2,3,4-tetrahydroquinolin-4-yl)amino)benzamide)propyl)carbamoyl)phenyl)-6H-thieno[3,2-f][1,2,4]triazolo[4,3-a][1,4]diazepin-6-yl)acetate]",,,,0.3,0.34,22.8,76

# The next lines start with results.
IC50 (SU-DHL-4 cells; Homo sapiens) [nM],IC50 (DCAF16 KO SU-DHL-4 cells; Homo sapiens) [nM],IC90 (SU-DHL-4 cells; Homo sapiens) [nM],IC50 (SU-DHL-4 cells) [nM],IC90 (SU-DHL-4 cells) [nM],IC50 (DCAF16 KO SU-DHL-4 cells) [nM],SMILES,Activity Attenuation Ratio (DCAF16 KO SU-DHL-4 cells)
0.017,4,,,,,"CCC(=O)N1c2ccccc2[C@H](Nc2ccc(-c3cnn(CC(=O)Nc4ccc(C5=NCc6nnc(C)n6-c6sc(C)c(C)c65)cc4)c3)cc2)C[C@@H]1C [Compound 14a, 2-(4-(4-(((2S,4R)-2-Methyl-1-propionyl-1,2,3,4-tetrahydroquinolin-4-yl)amino)phenyl)-1H-pyrazol-1-yl)-N-(4-(2,3,9-trimethyl-6H-thieno[3,2-f][1,2,4]triazolo[4,3-a][1,4]diazepin-4-yl)phenyl)acetamide]",228
0.1,9.61,,,,,"CCC(=O)N1c2ccccc2[C@H](Nc2ccc(NC(=O)COCC(=O)Nc3ccc(C4=NCc5nnc(C)n5-c5sc(C)c(C)c54)cc3)cc2)C[C@@H]1C [Compound 14d, N-(4-(((2S,4R)-2-Methyl-1-propionyl-1,2,3,4-tetrahydroquinolin-4-yl)amino)phenyl)-2-(2-oxo-2-((4-(2,3,9-trimethyl-6H-thieno[3,2-f][1,2,4]triazolo[4,3-a][1,4]diazepin-4-yl)phenyl)amino)ethoxy)acetamide]",96
0.21,68.3,,,,,"Cc1sc2c(c1C)C(c1ccc(NC(=O)C#CCNC(=O)c3ccc(C4=NCc5nnc(C)n5-c5sc(C)c(C)c54)cc3)cc1)=NCc1nnc(C)n1-2 [Compound 14e, N-(4-Oxo-4-((4-(2,3,9-trimethyl-6H-thieno[3,2-f][1,2,4]triazolo[4,3-a][1,4]diazepin-4-yl)phenyl)amino)but-2-yn-1-yl)-4-(2,3,9-trimethyl-6H-thieno[3,2-f][1,2,4]triazolo[4,3-a][1,4]diazepin-4-yl)benzamide]",332
0.14,2.95,,,,,"CCC(=O)N1c2ccccc2[C@H](Nc2ccc(NC(=O)CNC(=O)Nc3ccc(C4=NCc5nnc(C)n5-c5sc(C)c(C)c54)cc3)cc2)C[C@@H]1C [Compound 14f, N-(4-(((2S,4R)-2-Methyl-1-propionyl-1,2,3,4-tetrahydroquinolin-4-yl)amino)phenyl)-2-(3-(4-(2,3,9-trimethyl-6H-thieno[3,2-f][1,2,4]triazolo[4,3-a][1,4]diazepin-4-yl)phenyl)ureido)acetamide]",22
1,407,,,,,"Cc1sc2c(c1C)C(c1ccc(C(=O)N3CCC(NC(=O)c4ccc(C5=N[C@@H](CC(=O)OC(C)(C)C)c6nnc(C)n6-c6sc(C)c(C)c65)cc4)CC3)cc1)=NCc1nnc(C)n1-2 [Compound 14p, tert-Butyl (S)-2-(2,3,9-trimethyl-4-(4-((1-(4-(2,3,9-trimethyl-6H-thieno[3,2-f][1,2,4]triazolo[4,3-a][1,4]diazepin-4-yl)benzoyl)piperidin-4-yl)carbamoyl)phenyl)-6H-thieno[3,2-f][1,2,4]triazolo[4,3-a][1,4]diazepin-6-yl)acetate]",408
,,,0.28,0.34,63,"CCC(=O)N1c2ccccc2[C@H](Nc2ccc(NC(=O)CCCC(=O)Nc3ccc(Cn4c(C(=O)OCCN(C)C)cc5c4CCCC5=O)cc3)cc2)C[C@@H]1C [Compound 15a, 2-(Dimethylamino)ethyl 1-(4-(5-((4-(((2S,4R)-2-methyl-1-propionyl-1,2,3,4-tetrahydroquinolin-4-yl)amino)phenyl)amino)-5-oxopentanamide)benzyl)-4-oxo-4,5,6,7-tetrahydro-1H-indole-2-carboxylate]",225
0.11,858,,,,,"CCC(=O)N1c2ccccc2[C@H](Nc2ccc(-c3cnn(CCNC(=O)c4ccc(Cn5c(C(=O)OCCN(C)C)cc6c5CCCC6=O)cc4)c3)cc2)C[C@@H]1C [Compound 15d, 2-(Dimethylamino)ethyl 1-(4-((2-(4-(4-(((2S,4R)-2-methyl-1-propionyl-1,2,3,4-tetrahydroquinolin-4-yl)amino)phenyl)-1H-pyrazol-1-yl)ethyl)carbamoyl)benzyl)-4-oxo-4,5,6,7-tetrahydro-1H-indole-2-carboxylate]",7994
0.03,28.3,,,,,"CCC(=O)N1c2ccccc2[C@H](Nc2ccc(-n3cc(CNC(=O)c4ccc(Cn5c(CC)cc6c5CCCC6=O)cc4)nn3)cc2)C[C@@H]1C [Compound 15f, 4-((2-Ethyl-4-oxo-4,5,6,7-tetrahydro-1H-indol-1-yl)methyl)-N-((1-(4-(((2S,4R)-2-methyl-1-propionyl-1,2,3,4-tetrahydroquinolin-4-yl)amino)phenyl)-1H-1,2,3-triazol-4-yl)methyl)benzamide]",902
